Source: PubChem BioAssay (NCI)
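Interpolation was linear, between the two tested concentrations surrounding the appropriate level; five concentrations were tested over 48 hours in 96-well plates. TGI marks complete inhibition of growth.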

How the values were obtained:
Experiment in all cases: NCI tumour cell line growth inhibition, 48 h
DMS 114 small cell lung = system: DMS 114 small cell lung
LOX IMVI melanoma = system: LOX IMVI melanoma
SNB-78 CNS = system: SNB-78 CNS
DLD-1 colon = system: DLD-1 colon
RXF-631 renal = system: RXF-631 renal
KM20L2 colon = system: KM20L2 colon
LXFL 529 NSCLC = system: LXFL 529 NSCLC
SNB-19 CNS = system: SNB-19 CNS
HOP-18 NSCLC = system: HOP-18 NSCLC
DMS 273 small cell lung = system: DMS 273 small cell lung
XF 498 CNS = system: XF 498 CNS
M19-MEL melanoma = system: M19-MEL melanoma
COLO 205 colon = system: COLO 205 colon
BT-549 breast = system: BT-549 breast

COC(=O)C(Cc1nc2ccc(Cl)cc2[nH]c1=O)C(=O)C(=O)Nc1cc(C)ccc1C (configuration not stated)
TGI (DMS 114 small cell lung): > 100 µM | TGI (LOX IMVI melanoma): > 100 µM | TGI (SNB-78 CNS): > 100 µM | TGI (DLD-1 colon): > 100 µM | TGI (RXF-631 renal): > 100 µM | TGI (KM20L2 colon): > 100 µM | TGI (LXFL 529 NSCLC): > 100 µM | TGI (SNB-19 CNS): > 100 µM | TGI (HOP-18 NSCLC): > 100 µM | TGI (DMS 273 small cell lung): > 100 µM | TGI (XF 498 CNS): > 100 µM | TGI (M19-MEL melanoma): > 100 µM | TGI (COLO 205 colon): > 100 µM

CCc1cccc(C(C)C)c1NC(=O)/C(=N\NC(N)=O)C(C(=O)OC)c1cnc2ccccc2n1 (configuration not stated)
TGI (DMS 114 small cell lung): 54.2 µM | TGI (LOX IMVI melanoma): > 100 µM | TGI (SNB-78 CNS): > 100 µM | TGI (DLD-1 colon): > 100 µM | TGI (RXF-631 renal): > 100 µM | TGI (KM20L2 colon): > 100 µM | TGI (LXFL 529 NSCLC): > 100 µM | TGI (SNB-19 CNS): > 100 µM | TGI (HOP-18 NSCLC): 98.2 µM | TGI (DMS 273 small cell lung): > 100 µM | TGI (XF 498 CNS): > 100 µM | TGI (M19-MEL melanoma): 32.4 µM | TGI (COLO 205 colon): 49.6 µM

CC1OC(n2cc(F)c(=O)[nH]c2=O)CCC1=O (configuration not stated)
TGI (DMS 114 small cell lung): > 100 µM | TGI (LOX IMVI melanoma): > 100 µM | TGI (SNB-78 CNS): > 100 µM | TGI (DLD-1 colon): > 100 µM | TGI (RXF-631 renal): > 100 µM | TGI (KM20L2 colon): > 100 µM | TGI (LXFL 529 NSCLC): > 100 µM | TGI (SNB-19 CNS): > 100 µM | TGI (HOP-18 NSCLC): > 100 µM | TGI (DMS 273 small cell lung): > 100 µM | TGI (M19-MEL melanoma): > 100 µM | TGI (COLO 205 colon): > 100 µM

CC(=O)OCC12CC(CC1OC(C)=O)c1ccccc12 (configuration not stated)
TGI (DMS 114 small cell lung): > 100 µM | TGI (LOX IMVI melanoma): > 100 µM | TGI (RXF-631 renal): > 100 µM | TGI (KM20L2 colon): > 100 µM | TGI (LXFL 529 NSCLC): > 100 µM | TGI (SNB-19 CNS): > 100 µM | TGI (HOP-18 NSCLC): > 100 µM | TGI (DMS 273 small cell lung): > 100 µM | TGI (M19-MEL melanoma): > 100 µM | TGI (COLO 205 colon): > 100 µM

COc1ccc(OC2(c3cc(OC)ccc3OC)OC(=O)c3ccccc32)cc1 (configuration not stated)
TGI (DMS 114 small cell lung): > 100 µM | TGI (LOX IMVI melanoma): > 100 µM | TGI (SNB-78 CNS): > 100 µM | TGI (DLD-1 colon): > 100 µM | TGI (RXF-631 renal): > 100 µM | TGI (KM20L2 colon): > 100 µM | TGI (LXFL 529 NSCLC): > 100 µM | TGI (SNB-19 CNS): > 100 µM | TGI (HOP-18 NSCLC): > 100 µM | TGI (DMS 273 small cell lung): > 100 µM | TGI (M19-MEL melanoma): > 100 µM | TGI (COLO 205 colon): > 100 µM

CC(=O)NC(CCCNC(=O)N(C)N=O)C(=O)NCc1ccccc1 (configuration not stated)
TGI (DMS 114 small cell lung): > 100 µM | TGI (LOX IMVI melanoma): > 100 µM | TGI (SNB-78 CNS): > 100 µM | TGI (DLD-1 colon): > 100 µM | TGI (RXF-631 renal): > 100 µM | TGI (KM20L2 colon): > 100 µM | TGI (LXFL 529 NSCLC): > 100 µM | TGI (SNB-19 CNS): > 100 µM | TGI (DMS 273 small cell lung): > 100 µM | TGI (XF 498 CNS): > 100 µM | TGI (M19-MEL melanoma): > 100 µM | TGI (COLO 205 colon): > 100 µM

O=C1CCC2(c3ccc(Cl)cc3)Nc3ccccc3N12 (configuration not stated)
TGI (DMS 114 small cell lung): > 100 µM | TGI (LOX IMVI melanoma): > 100 µM | TGI (SNB-78 CNS): > 100 µM | TGI (DLD-1 colon): > 100 µM | TGI (RXF-631 renal): > 100 µM | TGI (KM20L2 colon): > 100 µM | TGI (LXFL 529 NSCLC): > 100 µM | TGI (SNB-19 CNS): > 100 µM | TGI (HOP-18 NSCLC): > 100 µM | TGI (XF 498 CNS): > 100 µM | TGI (M19-MEL melanoma): > 100 µM | TGI (COLO 205 colon): > 100 µM

CC(C)C1=Cc2ccc3c(c2C(=O)C1=O)CCCC3
TGI (DMS 114 small cell lung): 3.61 µM | TGI (LOX IMVI melanoma): 25.6 µM | TGI (SNB-78 CNS): 11.9 µM | TGI (DLD-1 colon): 3.31 µM | TGI (RXF-631 renal): 25.1 µM | TGI (KM20L2 colon): 42.7 µM | TGI (LXFL 529 NSCLC): 2.52 µM | TGI (SNB-19 CNS): 37.5 µM | TGI (HOP-18 NSCLC): 8.96 µM | TGI (DMS 273 small cell lung): 13.6 µM | TGI (XF 498 CNS): 5.53 µM | TGI (M19-MEL melanoma): 8.59 µM | TGI (COLO 205 colon): 27.1 µM

COc1cccc(/C=C2\CCC(CN(C)C)C2=O)c1 (configuration not stated)
TGI (DMS 114 small cell lung): 42.4 µM | TGI (BT-549 breast): 15.2 µM | TGI (LOX IMVI melanoma): 3.51 µM | TGI (SNB-78 CNS): 66.5 µM | TGI (DLD-1 colon): 7.81 µM | TGI (RXF-631 renal): 20.2 µM | TGI (KM20L2 colon): 31.7 µM | TGI (LXFL 529 NSCLC): 6.45 µM | TGI (SNB-19 CNS): 29.5 µM | TGI (HOP-18 NSCLC): 33.2 µM | TGI (DMS 273 small cell lung): 26.2 µM | TGI (XF 498 CNS): 33.6 µM | TGI (M19-MEL melanoma): 21.5 µM | TGI (COLO 205 colon): 24.5 µM

COC(=O)/C=C1\CCC2[C@@H](C(=O)CC3[C@]2(C)CCC[C@@]3(C)C(=O)OC)C1C (some centres not stated)
TGI (DMS 114 small cell lung): 37.2 µM | TGI (SNB-78 CNS): > 100 µM | TGI (DLD-1 colon): > 100 µM | TGI (RXF-631 renal): 63.1 µM | TGI (KM20L2 colon): 80.3 µM | TGI (LXFL 529 NSCLC): 23.7 µM | TGI (SNB-19 CNS): > 100 µM | TGI (HOP-18 NSCLC): 79.4 µM | TGI (DMS 273 small cell lung): 52.4 µM | TGI (XF 498 CNS): 28 µM | TGI (M19-MEL melanoma): 39.7 µM | TGI (COLO 205 colon): 33 µM

Cc1cc(N(CCC#N)CCC#N)ccc1/C=C1N=C(/C=C\c2ccccc2)N(NC(=O)CC(=O)Nc2ccccc2Cl)C\1=O
TGI (DMS 114 small cell lung): > 100 µM | TGI (LOX IMVI melanoma): > 100 µM | TGI (DLD-1 colon): > 100 µM | TGI (RXF-631 renal): > 100 µM | TGI (KM20L2 colon): > 100 µM | TGI (LXFL 529 NSCLC): > 100 µM | TGI (SNB-19 CNS): > 100 µM | TGI (HOP-18 NSCLC): > 100 µM | TGI (M19-MEL melanoma): > 100 µM | TGI (COLO 205 colon): > 100 µM

Cc1ccc(NC(=O)C2C3C=CC(O3)C2C(=O)O)cc1 (configuration not stated)
TGI (DMS 114 small cell lung): > 100 µM | TGI (LOX IMVI melanoma): 47.4 µM | TGI (SNB-78 CNS): > 100 µM | TGI (DLD-1 colon): > 100 µM | TGI (KM20L2 colon): > 100 µM | TGI (LXFL 529 NSCLC): > 100 µM | TGI (SNB-19 CNS): > 100 µM | TGI (HOP-18 NSCLC): > 100 µM | TGI (DMS 273 small cell lung): > 100 µM | TGI (XF 498 CNS): > 100 µM | TGI (M19-MEL melanoma): > 100 µM | TGI (COLO 205 colon): > 100 µM

Cc1cc(Cl)ccc1NC(=O)/C(=N\NC(C)(C)C)C(C#N)c1nc(-c2ccc([N+](=O)[O-])cc2)cs1 (configuration not stated)
TGI (DMS 114 small cell lung): > 100 µM | TGI (LOX IMVI melanoma): > 100 µM | TGI (SNB-78 CNS): > 100 µM | TGI (DLD-1 colon): > 100 µM | TGI (RXF-631 renal): > 100 µM | TGI (KM20L2 colon): > 100 µM | TGI (LXFL 529 NSCLC): > 100 µM | TGI (SNB-19 CNS): > 100 µM | TGI (HOP-18 NSCLC): > 100 µM | TGI (DMS 273 small cell lung): > 100 µM | TGI (XF 498 CNS): > 100 µM | TGI (M19-MEL melanoma): > 100 µM

CC(C)N(C(=O)C12C3C4C5C3C1(C(=O)O)C5C42)C(C)C (configuration not stated)
TGI (DMS 114 small cell lung): > 100 µM | TGI (LOX IMVI melanoma): > 100 µM | TGI (SNB-78 CNS): > 100 µM | TGI (DLD-1 colon): > 100 µM | TGI (RXF-631 renal): > 100 µM | TGI (KM20L2 colon): > 100 µM | TGI (LXFL 529 NSCLC): > 100 µM | TGI (SNB-19 CNS): > 100 µM | TGI (DMS 273 small cell lung): > 100 µM | TGI (XF 498 CNS): > 100 µM | TGI (M19-MEL melanoma): > 100 µM | TGI (COLO 205 colon): > 100 µM

CCOC(=O)NC(=O)c1cn(CCSCCOC(=O)NCCCCCCNC(=O)OCCSCCn2cc(C(=O)NC(=O)OCC)c(=O)n(C)c2=O)c(=O)n(C)c1=O
TGI (LOX IMVI melanoma): > 100 µM | TGI (SNB-78 CNS): > 100 µM | TGI (DLD-1 colon): > 100 µM | TGI (RXF-631 renal): 64 µM | TGI (KM20L2 colon): > 100 µM | TGI (LXFL 529 NSCLC): > 100 µM | TGI (SNB-19 CNS): > 100 µM | TGI (HOP-18 NSCLC): 1.02 µM | TGI (XF 498 CNS): 85.4 µM | TGI (M19-MEL melanoma): 51.3 µM | TGI (COLO 205 colon): > 100 µM

O=S1Nc2cccc(C(F)(F)F)c2S1 (configuration not stated)
TGI (DMS 114 small cell lung): 83.2 µM | TGI (LOX IMVI melanoma): 74.1 µM | TGI (SNB-78 CNS): > 100 µM | TGI (DLD-1 colon): > 100 µM | TGI (KM20L2 colon): > 100 µM | TGI (LXFL 529 NSCLC): > 100 µM | TGI (SNB-19 CNS): > 100 µM | TGI (HOP-18 NSCLC): > 100 µM | TGI (DMS 273 small cell lung): > 100 µM | TGI (XF 498 CNS): 98.7 µM | TGI (M19-MEL melanoma): > 100 µM | TGI (COLO 205 colon): 35.8 µM
